Assay results as given in US9284368B2, “Substituted pyrazines as cadherin-11 inhibitors” (Georgetown University, priority 2009, dated 2016).
“Also recorded” adds a separate entry of the source.

What was measured:
[1] = test system: L-cells with stably-transfected cadherin-11; experiment: Cell aggregation assay, cadherin-11 transfected L-cells; type: cell-based; details: cadherin-11 L-cells, shaken one hour at 100 rpm
Procedure: (§1) Cell aggregation assays were performed on L-cells with stably-transfected empty vector or cadherin-11. The cells were seeded and grown overnight, trypsinized with additional EDTA, resuspended in DMEM with 20% FBS, and counted. The cells were spun down and resuspended in DMEM containing no treatment, 0.5 mM EDTA, 0.25 mM EDTA, 0.1 mM EDTA, or cadherin-11 inhibitors including 1 TM of Compound 1 (Sd-133), 1 TM of Compound 2 (Sd-133A), 1 TM of Compound 3 (Sd-133B), 1 TM of Compound 11 (Sd-12), 1 TM of Compound 12 (Sd-48), 1 TM of Compound 17 (Sd-20), 1 TM of Compound 18 (Sd-51), 1 TM of Compound 19 (Sd-22), or 1 TM of Compound 20 (Sd-23). The cells were allowed to recover for one hour and were then put into uncoated 12 well plates and shaken for one hour at 100 rpm at 2.25×10^5 cells/mL. The cells were then counted using Microsizer Coulter Counter (Beckman Coulter, Inc; Brea, Calif.). Counts over 20 uM in length were considered aggregates, while counts below 20 uM were considered as single cells. The counts were confirmed by manual counting.

[2] = test system: L-cells with stably-transfected empty vector; experiment: Cell aggregation assay, empty vector L-cells; type: cell-based; details: shaken one hour at 100 rpm
Procedure: as §1

cadherin-11 = molecular target: T1, cadherin-11 (Homo sapiens, UniProt P55287); experiment: Initial functional screening of in silico hits for block of cadherin-11 function; type: cell-based; details: in vitro screening of commercially purchased in silico hits
T1 construct: Endogenous cadherin-11 expression in MDA-MB-231 breast and PC-3 prostate cancer cells was knocked down; endogenous in cells; host or cells: MDA-MB-231 breast cancer cells (PC-3 partly)
T1 sequence (P55287 54-796): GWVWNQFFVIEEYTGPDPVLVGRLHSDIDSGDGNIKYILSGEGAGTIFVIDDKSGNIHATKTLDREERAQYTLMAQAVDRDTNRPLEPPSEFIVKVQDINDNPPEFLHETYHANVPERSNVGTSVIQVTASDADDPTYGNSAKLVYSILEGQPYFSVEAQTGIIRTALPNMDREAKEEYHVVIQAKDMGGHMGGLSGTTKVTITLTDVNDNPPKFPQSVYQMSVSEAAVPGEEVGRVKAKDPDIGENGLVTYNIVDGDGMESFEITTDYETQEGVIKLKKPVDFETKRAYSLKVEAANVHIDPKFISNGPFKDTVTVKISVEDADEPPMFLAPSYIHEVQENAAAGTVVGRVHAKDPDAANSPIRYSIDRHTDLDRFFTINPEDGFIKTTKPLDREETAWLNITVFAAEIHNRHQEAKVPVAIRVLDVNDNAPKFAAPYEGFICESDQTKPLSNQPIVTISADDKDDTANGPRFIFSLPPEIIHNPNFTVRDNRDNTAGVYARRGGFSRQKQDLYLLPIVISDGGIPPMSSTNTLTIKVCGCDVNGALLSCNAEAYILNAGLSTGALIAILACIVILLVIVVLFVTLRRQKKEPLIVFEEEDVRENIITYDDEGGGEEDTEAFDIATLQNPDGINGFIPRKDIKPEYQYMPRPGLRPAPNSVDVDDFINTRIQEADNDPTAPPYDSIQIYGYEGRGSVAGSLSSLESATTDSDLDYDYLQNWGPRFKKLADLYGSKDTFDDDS
Procedure: These two pharmacophores were further refined and screened again to maximize solubility and then retested using various in vitro assays. […] Finally, it was also observed that the compound was not cytotoxic up to a 100 μM dosage in vitro, as well as a pilot study in nude mice.
Cadherin-11 association with certain poor prognosis cancers, proliferation of basal-type breast cancer cells, and tumorigenesis in mice make it a viable therapeutic target for these malignancies. […] A computer-based method of structural modeling was used to predict conformations capable of binding these specific hydrophobic pockets. The ectodomain1 (EC1) dimer adhesive interface is formed by exchange of N-terminal β strands between two cadherin-11 molecules. The dimer interface has a large hydrophobic region (unique to type II cadherins) with two conserved tryptophan residues. […] This structure was used to base molecular simulations and produce pharmacophores designed to block one or both of the two adjacent regions (P1 and P2) predicted necessary for cadherin-11 function in cell-cell adhesion. Three in-silico strategies were implemented: 1) generation of flexible receptor conformations, 2) receptor-based dynamic pharmacophore screening and 3) small molecule docking simulations. The 29 most promising candidates identified by in silico screen were subjected to free energy simulations at 100 picosecond intervals, taking into consideration the induced fit effect, which accounts for conformation flexibility both before and after binding/docking simulations. […] These 29 compounds were purchased commercially and tested. Many of the compounds initially screened inhibited cadherin-11 function at 10 μM range, attesting to the in silico screening efficiency. […] The potency of Compound 1 likely stems from its shape and moderate structural flexibility, enabling it to accommodate to and bind tightly within the tryptophan binding pocket. Though this pocket is largely hydrophobic, a network of hydrogen bonds between Compound 1 and R23, H25, P88, S90 confers specificity and rigid binding. […]

[3] = test system: MDA-MB-231 breast cancer cells; experiment: Soft agar colony growth assay; type: cell-based; details: MDA-MB-231 cells, 100 nM
Procedure: To further characterize proliferative ability of cancer cells lacking cadherin-11, anchorage independent growth was studied in the stable cell lines. 6-well tissue culture dishes were coated with 1.2 mL 0.6% Bacto-agar (Difco; Franklin Lakes, N.J.) in DMEM supplemented with 5% fetal bovine serum. Once set, the cells were plated in triplicate in 0.3% agar (15,000/1 mL in each well) and layered gently on top of the coated agar. The plates were incubated for 10 days to 2 weeks prior to reading using a colony counter (Omnicon; Manassas, Va.) and visualized using a SMZ-1500 stereoscope (Nikon; Tokyo, JP).
(§2) For luminescence, the cells were plated in triplicate in 24-well white-walled tissue culture dishes (Wallac; Waltham, Mass.) as described above. On the final day, cells were resuspended in an equal volume of Cell-Titer-Glo Luminescence Reagent (Promega; Madison, Wis.), which measures ATP, and incubated for 20 min at room temperature. The assay was measured using luminescence.
Cells (5,000) were plated in 0.3% agar layered on top of 0.6% agar in 35-mm^2 plates. After 2 weeks, the colonies were counted in an Omnicon 3600 automated colony counter (BioLogics, Inc.; Manassas, Va.) and visualized using a SMZ-1500 stereoscope (Nikon; Tokyo, JP). Confirmation assays were completed in 24-well dishes and analyzed using Cell-Titer-Glo Reagent (see proliferation assays).

nude mice = experiment: Pilot toxicity study in nude mice; type: in vivo
MCF7 breast cancer cells [4] = experiment: Proliferation assay; type: cell-based; details: MCF7 breast cancer cells (expressing E and P-cadherin), 1 μM and 10 μM
Procedure: (§3) For crystal violet assays, cells were plated in triplicate in 96-well tissue culture dishes at 4 separate densities. Cells were grown in DMEM supplemented with 5% fetal bovine serum for a period of 5 days. Dishes representing growth were stained with crystal violet on Days 1, 3 and 5 after plating, by removing growth medium, staining with 50 μL of crystal violet stain for 10 min, then gently washing in dH2O and allowing to dry overnight. Stained cells were solubilized in 100 μL 50/50 (v/v) 0.1M sodium citrate and ethanol for 15 min, and absorbance was read at 630λ.
as §2, with “and grown in DMEM supplemented with 5% fetal bovine serum for 5 days.” for “as described above.”, “fifth” for “final”, “day, the” for “day,”
(§4) Cells were plated in triplicate at four separate densities and grown in DMEM with 5% FBS for five days. Cells were stained with crystal violet on days 1, 3, and 5 after plating, as described in Example 5. Absorbance was read at 630λ using a BioRad Ultramark Microplate Imaging System with Microplate Manager 5.1 software. […]

[5] = test system: MDA-MB-435 melanoma cells; experiment: Proliferation assay; type: cell-based; details: MDA-MB-435 melanoma cells (expressing N-cadherin), 1 μM and 10 μM
Procedure: as §3
as §2, with “and grown in DMEM supplemented with 5% fetal bovine serum for 5 days.” for “as described above.”, “fifth” for “final”, “day, the” for “day,”
as §4

[6] = test system: MDA-MB-231 breast cancer cells; experiment: Matrigel outgrowth (invasion) assay; type: cell-based; details: MDA-MB-231 cells, 100 nM
Procedure: (§5) Upon finding significant differences in growth and migration in cancer cells with reduced cadherin-11 expression, invasive capability of the stable cell lines was explored in a 3-dimensional matrix. The cells were plated in duplicate in a 12-well glass-bottom dish (MatTek; Ashland, Mass.) coated with 150 μL of Matrigel (BD Biosciences; San Jose, Calif.). The cells (5,000 cells/100 μl medium) were gently plated on top of the Matrigel layer directly and incubated 30 min at 37° C. Growth medium (1 mL) was gently added to each well, and growth was visualized using a 5× objective on an AH2 Vanox inverted microscope (Olympus; Tokyo, JP) equipped with a CCD camera.
(§6) Cells (5,000 cells/100 μl medium) were plated atop 150 μL layer of Matrigel (BD Biosciences; San Jose, Calif.) in duplicate in 12-well glass-bottom dishes (MatTek; Ashland, Mass.) and incubated for 30 minutes at 37° C. Growth medium (1 mL) was gently added to each well. Growth was visualized using a 5× objective on AH2 Vanox inverted microscope (Olympus; Tokyo, JP).

MCF7 breast cancer cells [7] = experiment: Matrigel outgrowth (invasion) assay; type: cell-based; details: MCF7 breast cancer cells (expressing E and P-cadherin), 1 μM and 10 μM
Procedure: as §5, §6

[8] = test system: MDA-MB-435 melanoma cells; experiment: Matrigel outgrowth (invasion) assay; type: cell-based; details: MDA-MB-435 melanoma cells (expressing N-cadherin), 1 μM and 10 μM
Procedure: as §5, §6

[9] = test system: PC-3 prostate cancer cells; experiment: Growth phenotypes in PC-3 cells; type: cell-based
Cytotoxicity in vitro = type: cell-based; details: up to a 100 μM dosage in vitro
[10] = test system: MDA-MB-231 breast cancer cells; experiment: Proliferation assay (crystal violet / luminescence); type: cell-based; details: MDA-MB-231 cells, 100 nM
Procedure: as §3
as §2, with “and grown in DMEM supplemented with 5% fetal bovine serum for 5 days.” for “as described above.”, “fifth” for “final”, “day, the” for “day,”
as §4

[11] = In vivo acute toxicity (OECD Up-and-Down Procedure); details: mouse, female Balb/c mice, IP injection, observed for 14 days
Procedure: Female Balb/c mice, 8-12 weeks old, were obtained from the National Cancer Institute (Bethesda, Md.). A stock solution of 200 mg/ml of Compound 1 was prepared with a 1:1 ratio of DMSO and PEG. The working solution was diluted with PEG. Compound 1 (Sd-133) was administered at a constant volume (0.01 ml/1 g body weight) over the range of doses to be tested by varying the concentration of the dosing preparation according to the OECD Acute Toxicity-Up-and Down Procedure. […] Observations included toxicity onset time, symptoms, duration and the time elapsed for recovery or death. Based on the study, the LD50 of Compound 1 was estimated at 2000 mg/kg.

## Oc1ccc(-c2nc3ccccc3nc2-c2ccccc2)cc1 [Compound 3]
[1]
  aggregate formation: decrease
[2]
  aggregate formation: remained stable

## O=C1c2ccccc2C(=O)c2c1oc1ccc3ccccc3c21 [Compound 9]
cadherin-11
  concentration range at which cadherin-11 is functionally blocked (effective range): nanomolar ranges

## Oc1ccc2c(c1)c1ccccc1c1ncccc21 [Compound 10]
cadherin-11
  concentration range at which cadherin-11 is functionally blocked (effective range): nanomolar ranges

## Oc1ccc(-c2cccnc2-c2ccccc2)cc1 [Compound 1]
[3]
  colony growth: significantly blocked; also recorded: significantly inhibited
Nude mice
  cytotoxicity: not cytotoxic
MCF7 breast cancer cells [4]
  proliferation: fails to block; also recorded: failed to alter
[5]
  proliferation: fails to block; also recorded: failed to alter
[6]
  invasion: significantly blocked; also recorded: significantly inhibited
MCF7 breast cancer cells [7]
  invasion: fails to block; also recorded: failed to alter
[8]
  invasion: fails to block; also recorded: failed to alter
[9]
  growth phenotypes: partially inhibited
Cytotoxicity in vitro
  cytotoxicity: not cytotoxic
[10]
  cell proliferation: significantly blocked; also recorded: significantly inhibited
[11]
  LD50 at 14 days: 2000 mg/kg
cadherin-11
  concentration range at which cadherin-11 is functionally blocked (effective range): nanomolar ranges

## Oc1ccc(-c2nc3ccccc3nc2-c2cccc(Cl)c2)cc1 [Compound 2]
[1]
  aggregate formation: decrease
[2]
  aggregate formation: remained stable
